Common to all, as to type: cell-based
Test [1] relates to Streptococcus pneumoniae. Description: MIC by broth microdilution, antibiotics with and without ALAFAC. The settings on record: Streptococcus pneumoniae, agent alone, read-out: MIC. As to the method:
(§1) Methodology: Minimal inhibitory concentrations (MICs) were determined in 96-well microtiter plates using the microdilution method according to approved standards of the CLSI except that Todd-Hewitt medium supplemented with 0.5% yeast extract, which yields reproducible MIC results was used as the test medium for S. pneumoniae. For the remaining species Mueller-Hinton medium was used as indicated by the CLSI standard. Each well contained two-fold dilutions of antibiotic, was seeded with a final bacterial concentration of 10^5 CFU/mL, and was incubated for 18 h at 37° C. in a Synergy II microplate reader (Biotek, Winooski, Vt.) where the OD600 was recorded every 5 minutes to monitor bacterial growth. The MIC was defined as the lowest concentration of antimicrobial agent solution at which no increase in OD600 was detected.
In vitro susceptibility tests. Minimal inhibitory concentrations (MICs) were determined in 96-well microtiter plates using the microdilution method according to approved standards of the CLSI except that Todd-Hewitt medium supplemented with 0.5% yeast extract, which yields reproducible MIC results was used as the test medium for S. pneumoniae. MICs for A. baumanni, and M. catarrhalis were determined in MH media. Two-fold dilutions of a starting antibiotic concentration was added in triplicate into microtiter plate wells (in 96-well plates), were seeded with a final bacterial concentration of ˜10^5 colony forming units (CFU)/mL, and was incubated for 18 h in ambient air at 37° C. in a Synergy II microplate reader (Biotek, Winooski, Vt.) where the OD600 was recorded every 5 minutes to monitor bacterial growth. The MIC was defined as the lowest concentration of antimicrobial agent solution at which no increase in OD600 was detected.
For orientation: Broth dilution looks for growth in wells or tubes with falling amounts of substance.

The test system of test [2] is Staphylococcus aureus. The description is as above. The following applies: Staphylococcus aureus. As to the method: as §1
In vitro susceptibility tests. Minimal inhibitory concentrations (MICs) were determined in 96-well microtiter plates using the microdilution method according to approved standards of the CLSI as described previously. However, rather than Mueller-Hinton broth, Tryptic soy broth (TSB) was used for susceptibility testing as it is the common media used for Staphylococcal growth, and as it has shown more consistent results for a variety of antimicrobials when tested against Staphylococci. […] A two-fold dilution series of antibiotics in triplicate and in the presence or absence of ALAFAC was prepared in 96 well microtiter plates, and each well was seeded with a final bacterial concentration of 10^5 CFU/mL, and was incubated for 24 h at 37° C. in a Synergy 2 microplate reader (Biotek, Winooski, Vt.) where the Optical Density at 600 nm (OD600) was recorded every 5 minutes to monitor bacterial growth. The MIC was defined as the lowest concentration of antimicrobial agent solution where no increase in OD600 was detected.

Test [3] has as its system Staphylococcus aureus. Description: Minimal bactericidal concentration (MBC) from MIC plates. The settings on record: Staphylococcus aureus. From the text:
The MBC was defined as the lowest concentration of antimicrobials yielding colony counts <0.1% (3 log10 reduction) of the initial inoculum (as determined by colony counts from the growth control well immediately after inoculation) as described.

The test system of test [4] is Streptococcus pneumoniae. The experiment in a line: Short-time kill assay on planktonic cultures. The settings on record: for Minimum antibiotic concentration for bactericidal (>3 log10) activity, planktonic: within 4-6 hours, antibiotic alone; for Bactericidal activity (FIG. 1): 1 hour at 37° C., fatty acids: concentration required to kill versus that associated with the ALAFAC-complex. How it is done:
Methodology: In late logarithmic growth phase, the bacteria were harvested by centrifugation at 12,000×g for 10 minutes and resuspended in phosphate-buffered saline (PBS; […], […], […], pH 7.4). Appropriate dilutions of the bacteria were suspended in PBS and treated with indicated concentrations of ALAFAC and/or antibiotics for various times. The effect on bacterial viability was assessed by plating serial dilutions of bacterial sample on tryptic soy agar plates containing 5% sheep blood (viable counts) and determining viable colony forming units after overnight growth at 37° C.
Short-time kill assays. In late logarithmic growth phase, the bacteria were harvested by centrifugation at 12,000×g for 10 minutes and resuspended in phosphate-buffered saline (PBS; 30 mM Na2HPO4, 10 mM KH2PO4, […], pH 7.4). Appropriate concentrations of the bacteria (around 10^8 colony forming units per ml) were suspended in PBS and treated with indicated concentrations of ALAFAC and/or antibiotics for various times. The effect on bacterial viability was assessed by plating serial dilutions of bacterial sample on tryptic soy agar plates containing 5% sheep blood (viable counts) and determining viable CFUs after overnight growth at 37° C.

Test [5] deals with Streptococcus pneumoniae biofilms. Description: Static biofilm model, viable counts. The settings on record: for Minimum antibiotic concentration for bactericidal (>3 log10) activity on biofilms: within 4-6 hours, antibiotic alone. How it is done:
Methodology: Pneumococci were grown statically in CDM and S. aureus were grown in trypic soy medium to mid-logarithmic phase (OD600=0.5), washed, and resuspended in fresh pre-warmed medium to a density of 2×10^4 CFU in 500 μl volume, and suspensions were used to seed sterile round glass coverslips in the bottom of polystyrene 24-well plates with or without a substratum of confluent H292 epithelial cells. Biofilms were cultured at 34° C. in 5% CO2 for indicated times with change of culture media every 12 hours and to assess biomass and antibiotic resistance by viable counts (as described).
Biofilms were then washed in PBS and detached by scraping the surface in the presence of 100 μL PBS followed by a rinse with 100 μL PBS. Collected cells were sonicated in a sonication water bath for 2 s followed by vortexing twice for 20 seconds at high speed and the dispersed biofilm cells were used to determine viable CFUs per ml from diluted samples plated and grown on blood agar.
Static Biofilm Model. Pneumococci were grown in CDM to mid-logarithmic phase (OD600=0.5), washed, and resuspended in fresh pre-warmed medium to a density of 2×10^4 CFUs in 500 μl volume, and suspensions were used to seed sterile round glass coverslips in the bottom of polystyrene 24-well plates with a substratum of confluent H292 epithelial cells as described. Biofilms were cultured at 34° C. in 5% CO2 for indicated times with change of culture media every 12 hours and used for SEM studies or to assess biomass and antibiotic resistance by viable plate counts.
Biofilms were then washed in PBS, dispersed by sonication, and collected by pipetting in 100 μL PBS followed by a rinse with 100 μL PBS. Collected cells were then vortexed twice for 20 seconds at high speed and the dispersed biofilm cells were used to determine viable CFUs per ml from diluted samples plated and grown on blood agar. Results are reported as the total number of CFUs per biofilm.

Test [6] relates to Staphylococcus aureus biofilms. Description: Static biofilm model, viable counts. The following applies: NRS 1 (VISA) and NRS 384 (VSSA) biofilms; 24 hours; vancomycin 32 μg/mL (21 μM) alone or with ALAFAC. As to the method:
Static Biofilm Model. Staphylococci were grown in TSB to mid-logarithmic phase (OD600=0.5), washed, and resuspended in fresh pre-warmed medium to a density of 2×10^4 CFU in 500 μl volume, and suspensions were used to seed polystyrene 24-well plates. Bacteria were cultured at 37° C. for 12 hours, after which biofilms were washed with PBS to eliminate planktonic bacteria and were exposed to TSB with indicated concentrations of ALAFAC and/or antibiotics for 24 hours at 37° C. Biofilms were then washed in PBS, sonicated and detached by scraping the surface in the presence of 100 μL PBS followed by a rinse with 100 μL PBS. Collected cells were vortexed twice for 20 seconds at high speed and the dispersed biofilm cells were first observed by microscopy to ensure proper dispersion and then diluted in a 10-fold dilution series where 100 μl of each dilution was plated on blood agar plates to determine viable CFUs per ml after overnight growth at 37° C. Colony counts from plates carrying 20-200 colonies were used to determine the viable counts and are reported as the total number of colony-forming units per biofilm.

One may read the MIC as the lowest concentration that inhibits growth of the organism. By MBC is commonly meant the lowest tested concentration that kills the bacteria rather than only halting them.

Values after ≈ are worked out from the molar mass of the structure shown. Where two headings read alike, the source gives them in different places.

As for `CC[C@H]1OC(=O)[C@H](C)[C@@H](O[C@H]2C[C@@](C)(OC)[C@@H](O)[C@H](C)O2)[C@H](C)[C@@H](O[C@@H]2O[C@H](C)C[C@H](N(C)C)[C@H]2O)[C@](C)(O)C[C@@H](C)C(=O)[C@H](C)[C@@H](O)[C@]1(C)O` [Erythromycin, erythromycin], the MIC in the test with Streptococcus pneumoniae [1] (S. pneumoniae D39) came to 0.03 µg/mL; with Streptococcus pneumoniae [1] (S. pneumoniae JY53 (erythromycin-resistant)), 3 µg/mL; in the test with Staphylococcus aureus [2] (S. aureus NRS123, antibiotic alone, read-out: MIC), 0.5 µg/mL; with Staphylococcus aureus [2] (S. aureus NRS384, antibiotic alone, read-out: MIC), 16 µg/mL. Moreover, the MBC in the test with Staphylococcus aureus [3] (NRS123, S. aureus NRS123, antibiotic alone, read-out: MBC) was 16 µg/mL (≈ 21.8 µM); with Staphylococcus aureus [3] (NRS384, S. aureus NRS384, antibiotic alone, read-out: MBC), more than 256 µg/mL. The Short-time killing entry with Streptococcus pneumoniae [4] (D39, 4 hours, ALAFAC 50 μg/ml, erythromycin 200 μg/ml, alone or combined, 7.2 log10 inoculum) is “insignificant bactericidal activity”. In the test with Streptococcus pneumoniae [4] (D39 and EF3030, 1 hour, penicillin G up to 5,000 μg/ml, erythromycin up to 1,000 μg/ml), the Bactericidal activity alone entry is “lacked any bactericidal activity”. Also, the “Minimum antibiotic concentration for bactericidal (>3 log10) activity, planktonic” value in the test on Streptococcus pneumoniae [4] (S. pneumoniae D39) was >1,000 μg/ml; in the test with Streptococcus pneumoniae [4] (S. pneumoniae JY53), more than 1000 μg/ml. For the same compound, in test [5] (D39 48 h biofilm (8.7 log10), erythromycin 500 μg/ml alone or with 250 μg/ml ALAFAC), the Biofilm killing entry is “no bactericidal effects”. Moreover, the “Minimum antibiotic concentration for bactericidal (>3 log10) activity on biofilms” value in test [5] (S. pneumoniae D39 biofilm) and in test [5] (S. pneumoniae JY53 biofilm) was more than 1000 μg/ml each time.
For the compound `CN[C@H](CC(C)C)C(=O)N[C@H]1C(=O)N[C@@H](CC(N)=O)C(=O)N[C@H]2C(=O)N[C@H]3C(=O)N[C@H](C(=O)N[C@H](C(=O)O)c4cc(O)cc(O)c4-c4cc3ccc4O)[C@H](O)c3ccc(c(Cl)c3)Oc3cc2cc(c3O[C@@H]2O[C@H](CO)[C@@H](O)[C@H](O)[C@H]2O[C@H]2C[C@](C)(N)[C@H](O)[C@H](C)O2)Oc2ccc(cc2Cl)[C@H]1O` [Vancomycin, vancomycin], the results for the MIC in the test with Staphylococcus aureus [2] (NRS1) and in the test on Staphylococcus aureus [2] (NRS384) were 8 µg/mL and 1 µg/mL, respectively. Moreover, the minimal bactericidal concentration (MBC) in the test with Staphylococcus aureus [3] (NRS1) worked out at 32 µg/mL (≈ 22.1 µM); in the test with Staphylococcus aureus [3] (NRS384), 16 µg/mL (≈ 11 µM). Also, in test [6], the Biofilm killing result is “almost complete insensitivity”.
With `CCCCC/C=C\C/C=C\CCCCCCCC(=O)O` [linoleic acid], the “Bactericidal activity (FIG. 1)” value with Streptococcus pneumoniae [4] (S. pneumoniae D39) is “considerably higher”.
On the same count and under the same terms, with `CCCCCCCC/C=C\CCCCCCCC(=O)O` [oleic acid] the entry was “considerably higher”.
